From PubChem BioAssay AID212 (DTP/NCI, 2004)
Values joined by “and” are separate entries in the source; they are usually repeats but may differ in a detail not shown here. Identical values can stand only once. Results filed as inconclusive are left out.

System: BDF1 mice, colon carcinoma 38 sc, T/C %
Assay: NCI In Vivo Anticancer Drug Screen. Data for tumor model Colon Carcinoma 38 (subcutaneous) in B6D2F1 (BDF1) mice
Conditions: endpoint: median tumor weight (est.), higher = larger tumour
Method in brief: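 Compound antitumor activity was assessed in mice carrying transplantable tumors. Survival or tumor size was recorded, and each value is the treated-group measurement divided by that of the vehicle-treated control group.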

[1] = dose: 12.5 mg/kg/injection, schedule: Q07DX002 (ip), vehicle: Klucel (hydroxypropylcellulose) (HPC)
[2] = dose: 100.0 mg/kg/injection, schedule: Q07DX002 (ip), vehicle: Klucel (hydroxypropylcellulose) (HPC)
[3] = dose: 200.0 mg/kg/injection, schedule: Q07DX002 (ip), vehicle: Klucel (hydroxypropylcellulose) (HPC)
[4] = dose: 100.0 mg/kg/injection, schedule: Q07DX003 (ip), vehicle: saline
[5] = dose: 200.0 mg/kg/injection, schedule: Q07DX003 (ip), vehicle: saline
[6] = dose: 25.0 mg/kg/injection, schedule: Q07DX002 (ip), vehicle: Klucel (hydroxypropylcellulose) (HPC)
[7] = dose: 50.0 mg/kg/injection, schedule: Q07DX002 (ip), vehicle: Klucel (hydroxypropylcellulose) (HPC)
[8] = dose: 400.0 mg/kg/injection, schedule: Q07DX002 (ip), vehicle: Klucel (hydroxypropylcellulose) (HPC)
[9] = dose: 6.25 mg/kg/injection, schedule: Q07DX002 (ip), vehicle: saline with Tween-80
[10] = dose: 12.5 mg/kg/injection, schedule: Q07DX002 (ip), vehicle: saline with Tween-80
[11] = dose: 25.0 mg/kg/injection, schedule: Q07DX002 (ip), vehicle: saline with Tween-80
[12] = dose: 25.0 mg/kg/injection, schedule: Q07DX003 (ip), vehicle: saline with Tween-80
[13] = dose: 50.0 mg/kg/injection, schedule: Q07DX003 (ip), vehicle: saline with Tween-80
[14] = dose: 12.5 mg/kg/injection, schedule: Q07DX002 (ip), vehicle: water

In the case of O=C(Nc1ccc(Cl)c(Cl)c1)Nc1c(Oc2ccc(Cl)c(Cl)c2)ccc(Cl)c1S(=O)(=O)O, the T/C (dose: 6.25 mg/kg/injection, schedule: Q07DX002 (ip), vehicle: Klucel (hydroxypropylcellulose) (HPC)) is reported as 167 % of control, the T/C [1] is reported as 103 % of control and the T/C [2] is reported as 119 % of control. The T/C [3] was 66 % of control.
In the case of N=C(N)Sc1ccccn1, the T/C [4] is reported as 94 % of control, the T/C [5] is reported as 81 % of control and the T/C (dose: 400.0 mg/kg/injection, schedule: Q07DX003 (ip), vehicle: saline) is reported as 88 % of control and 108 % of control.
In the case of Cn1c(N)c(C(=O)/C=C/c2ccccc2)c(=O)n(C)c1=O, the T/C [6] is reported as 114 % of control, the T/C [7] is reported as 112 % of control and the T/C [2] is reported as 109 % of control. For the same molecule, the T/C [8] was 123 % of control.
With CC1(C)CC23C4COC(=O)C2CCC1C3CC4=O (stereo unspecified) the T/C (dose: 6.25 mg/kg/injection, schedule: Q07DX002 (ip), vehicle: DMSO) was 116 % of control and 101 % of control, the T/C (dose: 25.0 mg/kg/injection, schedule: Q07DX002 (ip), vehicle: DMSO) was 81 % of control and 92 % of control and the T/C (dose: 50.0 mg/kg/injection, schedule: Q07DX002 (ip), vehicle: DMSO) was 121 % of control and 105 % of control. The T/C (dose: 200.0 mg/kg/injection, schedule: Q07DX002 (ip), vehicle: DMSO) was 103 % of control.
For COc1cc2c(c(OC)c1OC)-c1c(cc3c(c1OC)OCO3)CC(C)C(C)(O)C2OC(=O)c1ccccc1 (stereo unspecified), the T/C (dose: 50.0 mg/kg/injection, schedule: Q07DX002 (ip), vehicle: saline + Tween-80 + alcohol) was 165 % of control, the T/C (dose: 100.0 mg/kg/injection, schedule: Q07DX002 (ip), vehicle: saline + Tween-80 + alcohol) was 103 % of control and the T/C (dose: 200.0 mg/kg/injection, schedule: Q07DX002 (ip), vehicle: saline + Tween-80 + alcohol) was 106 % of control. For the same molecule, the T/C (dose: 400.0 mg/kg/injection, schedule: Q07DX002 (ip), vehicle: saline + Tween-80 + alcohol) was 211 % of control and the T/C (dose: 800.0 mg/kg/injection, schedule: Q07DX002 (ip), vehicle: saline + Tween-80 + alcohol) was 111 % of control.
With C1CN2CN3CCN(CN1C3)C2 the T/C (dose: 25.0 mg/kg/injection, schedule: Q07DX002 (ip), vehicle: saline) was 111 % of control, the T/C (dose: 100.0 mg/kg/injection, schedule: Q07DX002 (ip), vehicle: saline) was 166 % of control and the T/C (dose: 200.0 mg/kg/injection, schedule: Q07DX002 (ip), vehicle: saline) was 115 % of control.
In the case of CCOC(=O)c1ccc(NN=NCCF)cc1, the T/C (dose: 3.12 mg/kg/injection, schedule: Q07DX002 (ip), vehicle: saline with Tween-80) is reported as 86 % of control, the T/C [9] is reported as 94 % of control and the T/C [10] is reported as 70 % of control. The T/C [11] was 89 % of control.
In the case of COc1cccc2c1C(=O)c1c(O)c3c(c(O)c1C2=O)C[C@@](O)(/C(CO)=N/NC(=O)c1ccc(Cl)c(Cl)c1)C[C@@H]3OC1CC(N)C(O)C(C)O1 (stereo partly specified), the T/C (dose: 1.5 mg/kg/injection, schedule: Q07DX002 (ip), vehicle: saline) is reported as 88 % of control, the T/C (dose: 3.0 mg/kg/injection, schedule: Q07DX002 (ip), vehicle: saline) is reported as 115 % of control and the T/C (dose: 6.0 mg/kg/injection, schedule: Q07DX002 (ip), vehicle: saline) is reported as 80 % of control. The T/C (dose: 12.0 mg/kg/injection, schedule: Q07DX002 (ip), vehicle: saline) was 73 % of control, the T/C (dose: 24.0 mg/kg/injection, schedule: Q07DX002 (ip), vehicle: saline) was 46 % of control and the T/C (dose: 48.0 mg/kg/injection, schedule: Q07DX002 (ip), vehicle: saline) was 48 % of control.
In the case of Cc1c2ccncc2c(C)c2c1[nH]c1ccccc12, the T/C (dose: 10.0 mg/kg/injection, schedule: Q07DX002 (ip), vehicle: distilled water + Tween-80) is reported as 63 % of control, the T/C [1] is reported as 54 % of control and 75 % of control and the T/C (dose: 12.5 mg/kg/injection, schedule: Q07DX003 (ip), vehicle: saline with Tween-80) is reported as 42 % of control. The T/C (dose: 12.5 mg/kg/injection, schedule: Q07DX003 (ip), vehicle: saline) was 78 % of control, the T/C (dose: 20.0 mg/kg/injection, schedule: Q07DX002 (ip), vehicle: distilled water + Tween-80) was 83 % of control and 103 % of control and the T/C (dose: 20.0 mg/kg/injection, schedule: Q07DX002 (ip), vehicle: water) was 61 % of control. For the same molecule, the T/C [12] was 38 % of control, the T/C (dose: 25.0 mg/kg/injection, schedule: Q07DX003 (ip), vehicle: saline) was 69 % of control and the T/C (dose: 40.0 mg/kg/injection, schedule: Q07DX002 (ip), vehicle: water) was 9 % of control. The T/C (dose: 50.0 mg/kg/injection, schedule: Q07DX003 (ip), vehicle: Klucel (hydroxypropylcellulose) (HPC)) was 45 % of control and 55 % of control, the T/C [13] was 28 % of control and the T/C (dose: 50.0 mg/kg/injection, schedule: Q07DX003 (ip), vehicle: saline) was 67 % of control. For the same molecule, the T/C (dose: 80.0 mg/kg/injection, schedule: Q07DX002 (ip), vehicle: distilled water + Tween-80) was 7 % of control, the T/C [2] was 12 % of control and 25 % of control and the T/C (dose: 100.0 mg/kg/injection, schedule: Q07DX003 (ip), vehicle: Klucel (hydroxypropylcellulose) (HPC)) was 12 % of control and 20 % of control. For the same molecule, the T/C (dose: 100.0 mg/kg/injection, schedule: Q07DX003 (ip), vehicle: saline with Tween-80) was 38 % of control, the T/C [4] was 33 % of control and the T/C (dose: 200.0 mg/kg/injection, schedule: Q07DX003 (ip), vehicle: saline with Tween-80) was 1 % of control. For the same molecule, the T/C [5] was 2 % of control.
In the case of O=C(C#Cc1ccccc1)c1ccccc1, the T/C (dose: 3.12 mg/kg/injection, schedule: Q07DX002 (ip), vehicle: Klucel (hydroxypropylcellulose) (HPC)) is reported as 73 % of control, the T/C (dose: 3.12 mg/kg/injection, schedule: Q07DX002 (ip), vehicle: water) is reported as 106 % of control and the T/C (dose: 6.25 mg/kg/injection, schedule: Q07DX002 (ip), vehicle: water) is reported as 77 % of control. For the same molecule, the T/C [1] was 83 % of control, the T/C [14] was 110 % of control and the T/C [6] was 101 % of control. For the same molecule, the T/C (dose: 25.0 mg/kg/injection, schedule: Q07DX002 (ip), vehicle: water) was 117 % of control and the T/C (dose: 50.0 mg/kg/injection, schedule: Q07DX002 (ip), vehicle: water) was 54 % of control.
Cc1cc(O)c2c(c1O)C(=O)C13C(=C2O)C(=O)C2C(O)C1C1C(O)C3C(=O)C3=C(O)c4c(O)cc(C)c(O)c4C(=O)C321 (stereo unspecified) was tested, and the T/C [9] was 68 % of control.
In the case of CCCCc1ccc2nc(NC(=O)OC)[nH]c2c1, the T/C [10] is reported as 114 % of control, the T/C [11] is reported as 83 % of control and the T/C (dose: 50.0 mg/kg/injection, schedule: Q07DX002 (ip), vehicle: saline with Tween-80) is reported as 98 % of control. The T/C (dose: 200.0 mg/kg/injection, schedule: Q07DX002 (ip), vehicle: saline with Tween-80) was 87 % of control.
In the case of O=C1CC2(C(=O)N1CN1CCCCC1)c1ccccc1-c1ccccc12, the T/C [1] is reported as 58 % of control, the T/C [6] is reported as 97 % of control and the T/C [7] is reported as 68 % of control. The T/C [2] was 102 % of control, the T/C [3] was 101 % of control and the T/C [8] was 81 % of control.
In the case of O=c1[nH]c(=O)n(C2OC(CO)C(O)C2O)cc1F (stereo unspecified), the T/C (dose: 3.12 mg/kg/injection, schedule: Q07DX002 (ip), vehicle: saline) is reported as 121 % of control, the T/C (dose: 6.25 mg/kg/injection, schedule: Q07DX002 (ip), vehicle: saline) is reported as 106 % of control and the T/C (dose: 12.5 mg/kg/injection, schedule: Q07DX002 (ip), vehicle: saline) is reported as 64 % of control.
With CC(=O)NC(C=O)OCC=O (stereo unspecified) the T/C [14] was 92 % of control and the T/C (dose: 400.0 mg/kg/injection, schedule: Q07DX002 (ip), vehicle: water) was 152 % of control.
CCOC(=O)/N=[N+](\[O-])c1ccccc1 was tested, and the T/C [9] was 49 % of control and the T/C [10] was 71 % of control.
For CC1(C)COCN1COC1CCCCC1, the T/C (dose: 25.0 mg/kg/injection, schedule: Q07DX002 (ip), vehicle: suspension in saline) was 84 % of control, the T/C (dose: 50.0 mg/kg/injection, schedule: Q07DX002 (ip), vehicle: suspension in saline) was 93 % of control and the T/C (dose: 100.0 mg/kg/injection, schedule: Q07DX002 (ip), vehicle: suspension in saline) was 97 % of control. The T/C (dose: 200.0 mg/kg/injection, schedule: Q07DX002 (ip), vehicle: suspension in saline) was 64 % of control.
For CCC[P+](c1ccccc1)(c1ccccc1)c1ccccc1, the T/C (dose: 3.12 mg/kg/injection, schedule: Q07DX003 (ip), vehicle: saline with Tween-80) was 114 % of control and 98 % of control, the T/C (dose: 6.25 mg/kg/injection, schedule: Q07DX003 (ip), vehicle: saline with Tween-80) was 96 % of control and the T/C [12] was 76 % of control. For the same molecule, the T/C [13] was 73 % of control.
